Measurements: article PMC9246256, “Structure-based optimization of type III indoleamine 2,3-dioxygenase 1 (IDO1) inhibitors” (Journal of Enzyme Inhibition and Medicinal Chemistry, 2022)
pIC50: −log10 of the molar value. Where two headings read alike, the source gives them in different places.

Target: T1, purified recombinant IDO1 (Homo sapiens, UniProt P14902)
T1 construct: Full-length human IDO1 gene was cloned into the pET-28a vector; inferred from pET-28a vector and HisTrap purification; made in house; host or cells: E. coli Rosetta (DE3)
Experiment: Enzymatic IDO1 inhibition assay (ascorbate/methylene blue reduction system, HPLC detection of kynurenine)
Type: biochemical
Settings: for pIC50: enzymatic, L-Trp 100 µM, 0.01% Triton X-100, 5% DMSO, 20 min at room temperature, pH 6.5, duplicates; for LE [kcal/mol/HA]: ligand efficiency, LE = -RT log(IC50)/number of heavy atoms, from enzymatic IC50
Description: Enzymatic IC50 values were measured with the ascorbate/methylene blue reduction system[85] in presence of a non-ionic detergent to reduce compound aggregation as described before[28]. Kynurenine and L-Trp concentrations were determined by HPLC through UV detection.
Full-length human IDO1 gene was cloned into the pET-28a vector and expressed in E. coli Rosetta (DE3) cells. […] The culture was harvested and frozen at −80 °C until further use. The frozen cells were lysed by sonication in 20 mM Tris pH 7, 400 mM NaCl, 1 mM MgCl2, 20 mM imidazole, 1 mM DTT, 0.5 mg/mL Lysozyme and Protease inhibitor. After centrifugation, the supernatant was loaded into a HisTrap HP column pre-equilibrated with buffer containing 20 mM Tris pH 7, 500 mM NaCl and 20 mM imidazole, and eluted with the same buffer containing 500 mM imidazole. Fractions containing IDO1 were pooled, concentrated, and injected on a size exclusion chromatography column (HiLoad Superdex S75 16/60) to increase purity. hIDO1 fractions were concentrated to 20 mg/mL in 20 mM Tris pH 7 and 150 mM NaCl.
The enzymatic inhibition assays were performed as described by Takikawa et al.[130] with some modifications. Briefly, the reaction mixture (100 µL) contained potassium phosphate buffer (100 mM, pH 6.5) ascorbic acid (20 mM), catalase (400 units/mL), methylene blue (10 µM), purified recombinant IDO1 (2.5 ng/µL), L-Trp (100 µM), Triton X-100 (0.01%) and DMSO (5 µL). The inhibitors were serially diluted 3-fold for at least 8 different concentrations. After incubation at room temperature for 20 min, the reaction was stopped in its linear phase by addition of trichloroacetic acid solution (40 mL, 30% w/v), and the samples were incubated at 50 °C for 30 min. After centrifugation, 80 µl of supernatant from each well were used for HPLC analysis. The mobile phase for HPLC analysis was composed of 50% (v/v) of methanol and 50% of sodium citrate buffer (40 mM, pH 2.4) containing 400 µM sodium dodecyl sulphate. […] All assays were carried out in duplicates. The activity (Act) of each compound was calculated as Act = RT log(IC50) in analogy to the relation between the binding free energy and the Ki value. The ligand efficiency (LE) was calculated as LE = −Act/NHA, where NHA is the number of non-hydrogen atoms (heavy atoms) in the compound.

T1 sequence (P14902 whole entry): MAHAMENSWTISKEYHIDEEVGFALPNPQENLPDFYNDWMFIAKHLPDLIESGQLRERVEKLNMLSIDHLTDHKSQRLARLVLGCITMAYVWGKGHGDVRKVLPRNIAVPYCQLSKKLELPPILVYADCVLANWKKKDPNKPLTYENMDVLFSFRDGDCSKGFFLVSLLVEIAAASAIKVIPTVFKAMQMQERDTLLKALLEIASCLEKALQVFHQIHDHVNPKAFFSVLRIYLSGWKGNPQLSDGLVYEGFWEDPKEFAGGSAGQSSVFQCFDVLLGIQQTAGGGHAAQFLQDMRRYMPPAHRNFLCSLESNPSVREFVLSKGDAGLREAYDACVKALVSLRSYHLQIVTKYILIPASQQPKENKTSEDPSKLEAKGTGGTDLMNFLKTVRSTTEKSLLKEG

SMILES	pIC50 (read-out: IC50 [ μ M] (SD))	LE [kcal/mol/HA]	pIC50 (IC50 [ μ M] (SD))
c1ccc2c(c1)ccc1nn[nH]c12 [Compound 88]	< 4.00		
Nc1cccnc1-c1nc[nH]n1 [Compound 160, 2-(1H-1,2,4-Triazol-3-yl)pyridine-3-amine]	4.80	0.55	
NCc1nn[nH]c1C(=O)c1ccc(Br)cc1 [Compound 126, (4-(Aminomethyl)-1H-1,2,3-triazol-5-yl)(4-bromophenyl)methanone]	< 3.00		
O=C(Nc1ccccc1)c1cn[nH]n1 [Compound 86, N-Phenyl-1H-1,2,3-triazole-4-carboxamide]	< 3.00		
c1ccc(-n2cncn2)cc1 [Compound 170, 1-phenyl-1,2,4-triazole]	3.06	0.38	
Oc1ccccc1-n1cncn1 [Compound 171]	4.49	0.52	
NC(=O)CSc1nnc2sc3ccccc3n12 [Compound 168, 2-((1,9a-Dihydrobenzo[4,5]thiazolo[2,3-c][1,2,4]triazol-3-yl)thio)acetamide]	< 3.00		
O=C(c1cnn[nH]1)c1ccccc1Cl [Compound 100, (2-Chlorophenyl)(1H-1,2,3-triazol-5-yl)methanone]	< 3.00		
Cc1c(Br)ccc(N)c1-c1nc[nH]n1 [Compound 155, 4-Bromo-3-methyl-2-(1H-1,2,4-triazol-3-yl)aniline]	4.20	0.41	
O=C(Nc1ccccc1-c1nc[nH]n1)c1ccccc1 [Compound 152, N-(2-(1H-1,2,4-triazol-3-yl)phenyl)benzamide]	< 4.00		
Cc1cccc2sc3nncn3c12 [Compound 167, tryclazole, reference compound]			< 3.00
N#Cc1[nH]nnc1-c1ccccc1 [Compound 62, 4-Phenyl-1H-1,2,3-triazole-5-carbonitrile]	3.20	0.34	
COc1cccc(OC)c1-c1c[nH]nn1 [Compound 45, 4–(2,6-Dimethoxyphenyl)-1,2,3-triazole]	< 3.00		
Clc1cccc(Cl)c1-c1c[nH]nn1 [Compound 51, 4–(2,6-Dichlorophenyl)-1,2,3-triazole]	3.55	0.37	
c1ccc(-c2nnc[nH]2)nc1 [Compound 159, 2-(1H-1,2,4-Triazol-3-yl)pyridine]			< 3.00
OC(c1ccccc1)c1c[nH]nn1 (stereo not shown) [Compound 85, Phenyl(1,2,3-triazol-4-yl)methanol]	< 3.00		
Nc1ccc(Br)cc1-c1nnc[nH]1 [Compound 12]		0.80	
Cc1cccc(-c2cnn[nH]2)c1 [Compound 21]		0.53	
NC(=O)c1[nH]nnc1-c1cc(Cl)ccc1O [Compound 67]	< 3.00		
O=C(c1cccc(Cl)c1)c1cnn[nH]1 [Compound 101, (3-Chlorophenyl)(1H-1,2,3-triazol-5-yl)methanone]	3.35	0.33	
CON=C(c1ccccc1)c1c[nH]nn1 [Compound 87, Phenyl(1H-1,2,3-triazol-4-yl)methanone O-methyl oxime]	< 3.00		
Oc1ccc(CCc2ccccc2)cc1-c1cnn[nH]1 [Compound 39, 4-Phenylethyl-2-(1H-1,2,3-triazol-5-yl)phenol]	3.80	0.26	
O=C(c1cccc(O)c1)c1cnn[nH]1 [Compound 107, (3-Hydroxyphenyl)(1H-1,2,3-triazol-5-yl)methanone]	< 3.00		
CCCCc1cccc(-c2c[nH]nn2)c1 [Compound 24, 4–(3-Butylphenyl)-1,2,3-triazole]	4.47	0.41	

SMILES	pIC50 (read-out: IC50 [ μ M] (SD))	LE [kcal/mol/HA]	pIC50 (IC50 [ μ M] (SD))
c1ccc2c(c1)Cc1n[nH]nc1-2 [Compound 89, 3,8-Dihydroindeno[1,2-d][1,2,3]triazole]	< 3.00		
O=C(Nc1c(Cl)cccc1-c1nc[nH]n1)c1ccccc1 [Compound 154, N-(2-Chloro-6-(1H-1,2,4-triazol-3-yl)phenyl)benzamide]	< 3.00		
Fc1ccc(-c2nc[nH]n2)cc1 [Compound 134, 3–(4-Fluorophenyl)-1H-1,2,4-triazole]	< 3.00		
O=C(c1ccc(Br)cc1)c1[nH]nnc1CBr [Compound 124, (4-(Bromomethyl)-1H-1,2,3-triazol-5-yl)(4-bromophenyl)methanone]	< 3.00		
c1ccc(Nc2cnn[nH]2)cc1 [Compound 79]	< 4.00		
Nc1ccsc1-c1nc[nH]n1 [Compound 161, 2-(1H-1,2,4-Triazol-3-yl)thiophen-3-amine]	5.00	0.57	
c1ccc(COc2ccccc2-c2c[nH]nn2)cc1 [Compound 25, 4–(2-Benzyloxyphenyl)-1,2,3-triazole]	< 3.30		
O=S(=O)(c1ccccc1)c1c[nH]nn1 [Compound 84, 4-(Phenylsulfonyl)-1H-1,2,3-triazole]	< 3.00		
COc1cccc(C(=O)c2cnn[nH]2)c1 [Compound 104, (3-Methoxyphenyl)(1H-1,2,3-triazol-5-yl)methanone]	3.00	0.28	
Brc1cccc(-c2nc[nH]n2)c1 [Compound 135, 3–(3-Bromophenyl)-1H-1,2,4-triazole]	4.80	0.55	
CCc1cccc(-c2cnn[nH]2)c1 [Compound 22]		0.51	
O=C(c1ccc(O)cc1)c1cnn[nH]1 [Compound 108, (4-Hydroxyphenyl)(1H-1,2,3-triazol-5-yl)methanone]	< 3.00		
CC(C)c1cccc(-c2c[nH]nn2)c1 [Compound 23, 4–(3-Isopropylphenyl)-1,2,3-triazole]	3.55	0.35	
Clc1ccc(Cl)c(-c2cnn[nH]2)c1 [Compound 46]		0.54	
Cc1[nH]nnc1-c1cccc(Cl)c1 [Compound 63, 4–(3-Chlorophenyl)-5-methyl-1,2,3-triazole]	< 3.00		
O=C(c1ccc(Br)cc1)c1[nH]nnc1CO [Compound 123, (4-Bromophenyl)(4-(hydroxymethyl)-1H-1,2,3-triazol-5-yl)methanone]	< 3.00		
Fc1cccc(-c2nc[nH]n2)c1 [Compound 137, 3–(3-Fluorophenyl)-1H-1,2,4-triazole]	3.80	0.43	
Brc1ccc(Nc2nnc[nH]2)cc1 [Compound 166, N-(4-Bromophenyl)-4H-1,2,4-triazol-3-amine]	< 3.00		
c1ccc(Sc2c[nH]nn2)cc1 [Compound 83, 4-(Phenylthio)-1,2,3-triazole]	3.23	0.37	
Oc1ccc(-c2c[nH]nn2)cc1 [Compound 20, 4–(1,2,3-Triazol-4-yl)phenol]	< 3.00		
c1ccc(Oc2cnn[nH]2)cc1 [Compound 82, 4-(Phenoxy)-1,2,3-triazole]	< 3.00		
c1ccc(Nc2[nH]nnc2-c2ccccc2)cc1 [Compound 80]	< 3.60		
Clc1cncc(-c2nc[nH]n2)n1 [Compound 162, 2-Chloro-6-(1H-1,2,4-triazol-3-yl)pyrazine]	3.60	0.41	
c1cc(-c2nc[nH]n2)ccn1 [Compound 158, 4-(1H-1,2,4-Triazol-3-yl)pyridine]	< 3.00		
